Experimental data published in US20260232767A1, “INTERLEUKIN-23 RECEPTOR ANTAGONIST PEPTIDES FOR USE IN THE TREATMENT OF PSORIASIS” (Janssen Pharmaceutica NV, priority 2023, published 2026).

How the values were obtained:
[1] = system: subjects with moderate-to-severe plaque psoriasis; assay: PSSD symptom and sign scores, Example 2; format: in vivo, human
Excerpt: Secondary endpoints included additional change from baseline of Example 1 in PASI, IGA, and PSSD at Week 52, including the proportions of subjects that achieved PAST 90, PAST 100, an IGA score of cleared (0) or minimal (1), PSSD symptoms score=0, and PSSD signs score=0.

[2] = system: subjects with moderate-to-severe plaque psoriasis; assay: Lipid panel laboratory values; format: in vivo, human; details: Week 52

CC(=O)NCCCC[C@@H]1NC(=O)[C@H](Cc2c[nH]c3c(C)cccc23)NC(=O)[C@H]([C@@H](C)O)NC(=O)[C@H](CC(N)=O)NC(=O)[C@@H](NC(C)=O)C(C)(C)SSC(C)(C)[C@@H](C(=O)N[C@@H](Cc2ccc(OCCN)cc2)C(=O)N[C@@H](Cc2ccc3ccccc3c2)C(=O)NC2(C(=O)N[C@@H](CCC(=O)O)C(=O)N[C@@H](CC(N)=O)C(=O)N[C@@H](Cc3cccnc3)C(=O)N(C)CC(N)=O)CCOCC2)NC1=O [IL-23 receptor antagonist peptide, Ac-[Pen]*-N-T-[W(7-Me)]-[Lys(Ac)]-[Pen]*-Phe[4-(2-aminoethoxy)]-[2-Nal]-[THP]-E-N-[3-Pal]-Sarc-NH2 (*[Pen]-[Pen]* formdisulfidebond)]
Subjects Achieving PSSD Sign Score 0 at Week 52 ([1]; 50 mg QD, Subjects w/Baseline PSSD Sign Score ≥1 (Table 26, second block)): 5 (11.6%) | Subjects achieving PSSD Sign Score = 0 at Week 52 ([1]; 100 mg QD, subjects with Baseline PSSD Sign Score ≥1): 6 (14.0%) | HDL Cholesterol change from baseline, Mean ([2]; 25 mg BID): 0.011 mmol/L | HDL Cholesterol change from baseline, Median ([2]; 25 mg BID): -0.010 mmol/L | LDL Cholesterol change from baseline, Mean ([2]; 25 mg BID): -0.155 mmol/L | LDL Cholesterol change from baseline, Median ([2]; 25 mg BID): -0.105 mmol/L | Triglycerides change from baseline, Mean ([2]; 25 mg BID): 0.144 mmol/L | Triglycerides change from baseline, Median ([2]; 25 mg BID): 0.040 mmol/L | HDL Cholesterol change from baseline, Mean ([2]; 25 mg QD): -0.034 mmol/L | HDL Cholesterol change from baseline, Median ([2]; 25 mg QD): -0.023 mmol/L | LDL Cholesterol change from baseline, Mean ([2]; 25 mg QD): 0.069 mmol/L | LDL Cholesterol change from baseline, Median ([2]; 25 mg QD): 0.132 mmol/L | Triglycerides change from baseline, Mean ([2]; 25 mg QD): 0.034 mmol/L | Triglycerides change from baseline, Median ([2]; 25 mg QD): 0.040 mmol/L | HDL Cholesterol change from baseline, Mean ([2]; 50 mg QD): -0.009 mmol/L | HDL Cholesterol change from baseline, Median ([2]; 50 mg QD): 0.014 mmol/L | LDL Cholesterol change from baseline, Mean ([2]; 50 mg QD): -0.146 mmol/L | LDL Cholesterol change from baseline, Median ([2]; 50 mg QD): -0.095 mmol/L | Triglycerides change from baseline, Mean ([2]; 50 mg QD): 0.156 mmol/L | Triglycerides change from baseline, Median ([2]; 50 mg QD): 0.067 mmol/L | HDL Cholesterol change from baseline, Mean ([2]; 100 mg BID): -0.027 mmol/L | HDL Cholesterol change from baseline, Median ([2]; 100 mg BID): -0.020 mmol/L | LDL Cholesterol change from baseline, Mean ([2]; 100 mg BID): -0.056 mmol/L | LDL Cholesterol change from baseline, Median ([2]; 100 mg BID): -0.110 mmol/L | Triglycerides change from baseline, Mean ([2]; 100 mg BID): 0.137 mmol/L | Triglycerides change from baseline, Median ([2]; 100 mg BID): 0.010 mmol/L | HDL Cholesterol change from baseline, Mean ([2]; 100 mg QD): -0.023 mmol/L | HDL Cholesterol change from baseline, Median ([2]; 100 mg QD): -0.027 mmol/L | LDL Cholesterol change from baseline, Mean ([2]; 100 mg QD): -0.147 mmol/L | LDL Cholesterol change from baseline, Median ([2]; 100 mg QD): -0.060 mmol/L | Triglycerides change from baseline, Mean ([2]; 100 mg QD): 0.024 mmol/L | Triglycerides change from baseline, Median ([2]; 100 mg QD): -0.005 mmol/L | HDL Cholesterol change from baseline, Mean ([2]; Combined): -0.012 mmol/L | HDL Cholesterol change from baseline, Median ([2]; Combined): -0.020 mmol/L | LDL Cholesterol change from baseline, Mean ([2]; Combined): -0.098 mmol/L | LDL Cholesterol change from baseline, Median ([2]; Combined): -0.105 mmol/L | Triglycerides change from baseline, Mean ([2]; Combined): 0.118 mmol/L | Triglycerides change from baseline, Median ([2]; Combined): 0.020 mmol/L | HDL Cholesterol change from baseline, Mean ([2]; Placebo → 100 mg QD): 0.013 mmol/L | HDL Cholesterol change from baseline, Median ([2]; Placebo → 100 mg QD): -0.035 mmol/L | LDL Cholesterol change from baseline, Mean ([2]; Placebo → 100 mg QD): -0.138 mmol/L | LDL Cholesterol change from baseline, Median ([2]; Placebo → 100 mg QD): -0.212 mmol/L | Triglycerides change from baseline, Mean ([2]; Placebo → 100 mg QD): 0.207 mmol/L | Triglycerides change from baseline, Median ([2]; Placebo → 100 mg QD): 0.035 mmol/L
